Reference: PMC5653977 (EMBO Molecular Medicine, 2017)
Structures can show the parent of a compound that is named as a salt.

Target: ERBB4 (Homo sapiens, UniProt Q15303)
Assay: Western blot of ERBB4 phosphorylation in T-47D cells
Settings: 10 ng/ml EGFld, 10 μM compound, 5 min

ERBB4, sequence (Q15303 26-1308): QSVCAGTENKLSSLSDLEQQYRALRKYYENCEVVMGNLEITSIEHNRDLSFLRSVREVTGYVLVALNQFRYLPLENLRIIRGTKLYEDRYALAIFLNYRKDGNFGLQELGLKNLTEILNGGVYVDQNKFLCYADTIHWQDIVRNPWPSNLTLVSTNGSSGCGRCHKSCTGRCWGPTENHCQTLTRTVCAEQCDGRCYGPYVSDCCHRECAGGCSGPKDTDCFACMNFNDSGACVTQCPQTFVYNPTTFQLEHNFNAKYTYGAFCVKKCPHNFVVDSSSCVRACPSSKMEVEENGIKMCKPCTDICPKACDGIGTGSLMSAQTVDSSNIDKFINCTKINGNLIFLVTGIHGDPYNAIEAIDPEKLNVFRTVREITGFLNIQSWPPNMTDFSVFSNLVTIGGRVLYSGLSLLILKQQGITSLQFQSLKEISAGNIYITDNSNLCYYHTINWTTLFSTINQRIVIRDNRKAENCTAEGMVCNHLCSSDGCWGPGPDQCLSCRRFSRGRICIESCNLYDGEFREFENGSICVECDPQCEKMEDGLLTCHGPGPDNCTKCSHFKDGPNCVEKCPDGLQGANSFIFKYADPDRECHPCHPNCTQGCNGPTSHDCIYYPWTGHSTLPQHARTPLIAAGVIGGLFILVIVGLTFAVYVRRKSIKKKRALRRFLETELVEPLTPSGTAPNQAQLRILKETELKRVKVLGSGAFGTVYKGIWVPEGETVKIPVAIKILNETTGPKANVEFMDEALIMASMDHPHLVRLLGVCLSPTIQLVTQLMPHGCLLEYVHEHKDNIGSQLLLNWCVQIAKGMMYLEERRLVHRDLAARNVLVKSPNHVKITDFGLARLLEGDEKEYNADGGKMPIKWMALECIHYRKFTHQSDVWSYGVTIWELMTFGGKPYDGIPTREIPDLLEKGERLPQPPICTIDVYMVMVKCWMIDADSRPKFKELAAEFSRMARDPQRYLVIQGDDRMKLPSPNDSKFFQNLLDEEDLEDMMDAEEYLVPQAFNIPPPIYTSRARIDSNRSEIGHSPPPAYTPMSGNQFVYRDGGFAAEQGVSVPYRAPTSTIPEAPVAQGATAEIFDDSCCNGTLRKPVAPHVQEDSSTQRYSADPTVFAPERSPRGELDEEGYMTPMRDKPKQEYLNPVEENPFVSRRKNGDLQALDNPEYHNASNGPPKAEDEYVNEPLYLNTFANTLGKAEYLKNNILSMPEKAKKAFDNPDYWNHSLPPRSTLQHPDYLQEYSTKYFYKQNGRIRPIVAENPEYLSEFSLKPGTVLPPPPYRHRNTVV

| Compound | ERBB4 phosphorylation at Tyr1056 and Tyr1284 |
| --- | --- |
| CS(=O)(=O)CCNCc1ccc(-c2ccc3ncnc(Nc4ccc(OCc5cccc(F)c5)c(Cl)c4)c3c2)o1 [lapatinib, Lapatinib ditosylate] | completely reverted |

System: NRG1-ERBB4 signaling
Assay: Nrg1-ERBB4-PIK3R1 split TEV co-culture compound screen of the NIH Clinical Collection
Assay type: cell-based, human
Settings: NIH Clinical Collection NCC-003 raw data; compounds ranked by Z-score; 'flagged' given instead of a Z-score

| Compound | Z-SCORE |
| --- | --- |
| O=c1c(-c2ccccc2)c1-c1ccccc1 [diphenylcyclopropenone] | flagged |
| CC[C@H](C)C(=O)O[C@H]1CCC=C2C=C[C@H](C)[C@H](CC[C@@H]3C[C@@H](O)CC(=O)O3)[C@H]21 [mevastatin] | flagged |
| CCOC(=O)[C@H](CCc1ccccc1)N[C@@H](C)C(=O)N1[C@H](C(=O)O)C[C@@H]2CCC[C@@H]21 [reference compound] | -1.41 |
| MEDROXYPROGESTERONE | -2.38 |

Same assay, conditions: compound screen of the NIH Clinical Collection, sheet raw data NCC-003; compounds ranked by Z-score

| Compound | Z-SCORE |
| --- | --- |
| C[C@@H](c1ncncc1F)[C@](O)(Cn1cncn1)c1ccc(F)cc1F [VORICONAZOLE] | -0.06 |
| CCCc1nc(C)c2c(=O)[nH]c(-c3cc(S(=O)(=O)N4CCN(CC)CC4)ccc3OCC)nn12.O=C(O)CC(O)(CC(=O)O)C(=O)O [Vardenafil citrate, reference compound] | 5.88 |
| Cc1ccnc2c1NC(=O)c1cccnc1N2C1CC1 [Viramune] | 0.09 |
| CN(CCO)CC(O)Cn1cnc2c1c(=O)n(C)c(=O)n2C.O=C(O)c1cccnc1 (stereo not drawn) [XANTHINOL NICOTINATE] | -0.46 |
| COc1cc(C(=O)NS(=O)(=O)c2ccccc2C)ccc1Cc1cn(C)c2ccc(NC(=O)OC3CCCC3)cc12 [ZAFIRLUKAST] | -0.67 |
| C[C@H]1CCC[C@H](O)CCCCCc2cc(O)cc(O)c2C(=O)O1 [ZERANOL] | -0.91 |
| CC(c1cc2ccccc2s1)N(O)C(N)=O (stereo not drawn) [ZILEUTON] | 1.28 |
| Cc1ccc(-c2nc3ccc(C)cn3c2CC(=O)N(C)C)cc1 [ZOLPIDEM TARTRATE] | -0.69 |
| COc1cc(N)c(Cl)cc1C(=O)NC1CN2CCC1CC2 (stereo not drawn) [Zacopride] | -0.82 |
| CCN(C(C)=O)c1cccc(-c2ccnc3c(C#N)cnn23)c1 [Zaleplon] | -0.02 |
| CN(C)CCc1c[nH]c2ccc(C[C@H]3COC(=O)N3)cc12 [Zolmitriptan] | 0.57 |
| CC[C@@H]1C=CC=CC[C@H](C)[C@@H](O)[C@@H](C)C(=O)[C@H](C)[C@@H](O)[C@H](C)C(=O)[C@H](C)[C@@H](O)[C@H](C)C=CC(=O)O[C@H]2[C@@H](C)[C@@H](CC1)O[C@@]1(CC[C@@H](C)[C@@H](C[C@H](C)O)O1)[C@@H]2C [[…]] | -0.54 |
| CN1CCN2c3ncccc3Cc3ccccc3C2C1 (stereo not drawn) [mirtazapine, reference compound] | -0.36 |
| C[C@]12CC[C@H]3[C@@H](CCC4=CC(=O)CC[C@@H]43)[C@@H]1CC[C@@H]2O [nandrolone] | -0.57 |
| Benzeneacetic acid | -0.01 |

Same assay, conditions: compounds at 10 μM, 24 h; PC12 split TEV assay cells co-cultured with Nrg1-expressing PC12 cells; analysed with cellHTS2

| Compound | Z-SCORE |
| --- | --- |
| CCCC(CCC)C(=O)O [Valproic Acid, reference compound] | -1.05 |
| CCCc1nc(C)c2c(=O)[nH]c(-c3cc(S(=O)(=O)N4CCN(CC)CC4)ccc3OCC)nn12.O=C(O)CC(O)(CC(=O)O)C(=O)O [Vardenafil citrate, reference compound] | 5.88 |
| O=C(O)c1cc2ccccc2c(Cc2c(O)c(C(=O)O)cc3ccccc23)c1O.OCCOCCN1CCN(C(c2ccccc2)c2ccc(Cl)cc2)CC1 [Vistaril Pamoate, reference compound] | -1.45 |
| CC(=O)CC(c1ccccc1)c1c(O)c2ccccc2oc1=O (stereo not drawn) [WARFARIN SODIUM, reference compound] | -0.02 |
| CCCCC(=O)O[C@]1(C(=O)CO)CC[C@H]2[C@@H]3CCC4=CC(=O)CC[C@]4(C)[C@H]3[C@@H](O)C[C@@]21C [Westcort, reference compound] | -0.71 |
| NS(=O)(=O)Cc1noc2ccccc12 [Zonisamide, reference compound] | -0.47 |
| COC(=O)[C@H](c1ccccc1Cl)N1CCc2sccc2C1 [clopidogrel, reference compound] | -0.3 |
| CC(C)n1c(/C=C/C(O)CC(O)CC(=O)O)c(-c2ccc(F)cc2)c2ccccc21 (stereo not drawn) [fluvastatin, reference compound] | flagged |
| CN1CCN2c3ncccc3Cc3ccccc3C2C1 (stereo not drawn) [mirtazapine, reference compound] | 0.65 |
| CCOC(=O)[C@H](CCc1ccccc1)N[C@@H](C)C(=O)N1[C@H](C(=O)O)C[C@@H]2CCC[C@@H]21 [reference compound] | 4.3 |
| Cc1cn([C@H]2C[C@H](N=[N+]=[N-])[C@@H](CO)O2)c(=O)[nH]c1=O [zidovudine, reference compound] | 0.17 |
| S(-)-Timolol maleate [reference compound] | -0.49 |

System: pyramidal neurons of the prefrontal cortex
Assay: Spontaneous inhibitory postsynaptic currents (sIPSCs) in acute prefrontal cortex slices
Assay type: cell-based, mouse
Settings: 10 μM, bath application
Protocol: (§1) 300‐μm‐thick transverse slices comprising the medial prefrontal cortex (mPFC) area were prepared from 7‐ to 8‐week‐old C57Bl/6 mice as described previously (Teng et al, 2013; Agarwal et al, 2014). All recordings were performed in cortical layer V projection neurons. The bath solution consisted of oxygenated artificial cerebrospinal fluid (ACSF) containing NaCl 126 mM, KCl 3 mM, NaH2PO4 1.25 mM, MgSO4 1 mM, NaHCO3 26 mM, CaCl2 2 mM, glucose 10 mM, and the pH 7.2 adjusted with NaOH. Spontaneous GABAergic inhibitory postsynaptic currents (sIPSC) and evoked GABAergic inhibitory postsynaptic currents (eIPSC) were recorded at a holding potential of −70 mV in the presence of 6‐cyano‐7‐nitroquinoxaline‐2,3‐dione (CNQX, 10 μM) and DL‐2‐amino‐5‐phosphonovaleric acid (D‐APV, 50 μM). Glass pipettes were filled with the solution containing: KCl 140 mM, MgCl2 2 mM, CaCl2 1 mM, Na2GTP 0.5 mM, Na2ATP 4 mM, EGTA 10 mM, HEPES 10 mM. Patches with a series resistance of > 25 MΩ, a membrane resistance of < 0.8 GΩ, or leak currents of > 150 pA were excluded. Biphasic rectangular electric pulses (10 ms, 100–300 μA) were applied to layer I of the prelimbic area of mPFC through another glass pipette filled with ACSF. Synaptic currents were acquired at 20 kHz and filtered at 6 kHz, with a Digidata 1440 ADC‐converter coupled to a Multiclamp 700B amplifier (Molecular Devices, USA). Data acquisition was performed using pClamp10 software (Molecular Devices). MiniAnalysis 6.0.9 (Synaptosoft Inc., Decatur, USA) and pClamp10.1 were used for amplitude and frequency analysis of sIPSCs and eIPSCs, respectively. Paired Student's t‐test was used for statistical analysis.

| Compound | sIPSC amplitude | sIPSC frequency |
| --- | --- | --- |
| C[C@]12CCC(=O)C=C1C=C[C@@H]1[C@@H]2CC[C@@]2(C)[C@H]1CC[C@@]21CCC(=O)O1 [canrenone] | no significant effect | no significant effect |

System: pyramidal neurons of the prefrontal cortex
Assay: Evoked inhibitory postsynaptic currents (eIPSCs) in acute prefrontal cortex slices
Assay type: cell-based, mouse
Settings: 5 μM
Protocol: as §1, with “Data acquisition was performed using pClamp10 software (Molecular Devices). MiniAnalysis 6.0.9 (Synaptosoft Inc., Decatur, USA) and pClamp10.1 were used for amplitude and frequency analysis of sIPSCs and eIPSCs, respectively. Paired Student's t‐test was used for statistical analysis.” left out

| Compound | eIPSC amplitude |
| --- | --- |
| CS(=O)(=O)CCNCc1ccc(-c2ccc3ncnc(Nc4ccc(OCc5cccc(F)c5)c(Cl)c4)c3c2)o1 [lapatinib, Lapatinib ditosylate] | increases |

Target: T1, ERBB4-PIK3R1 (Homo sapiens, UniProt Q15303)
T1 construct: human full‐length ERBB4‐Cyt1 was fused to the NTEV fragment; expressed in transfected cells; host or cells: PC12 Tet-Off cells (rat)
Assay: ERBB4-PIK3R1 split TEV single-culture dose-response assay, EGFld as stimulus
Assay type: cell-based
Settings: PC12 cells, 10 ng/ml EGFld as stimulus
From the text: For our HTS‐compatible split TEV assay approach, human full‐length ERBB4‐Cyt1 was fused to the NTEV fragment, a TEV protease cleavage site (tevS) and the artificial co‐transcriptional activator Gal4‐VP16 (ERBB4‐NTEV‐tevS‐GV); human PIK3R1 was fused to the CTEV fragment (PIK3R1‐CTEV) (Fig 1A). Upon ERBB4 activation, PIK3R1 is recruited to the receptor resulting in a reconstituted protease activity that cleaves off GV. In turn, released GV translocates to the nucleus and binds to upstream activating sequences (UAS) to activate the transcription of a firefly luciferase reporter gene (Fig 1A). A constitutively expressed Renilla luciferase driven under the control of the human thymidine kinase (TK) promoter was used as control to address off‐target effects related to toxicity.
For one 96‐well plate, 4 × 10^6 PC12 cells were harvested and diluted in 5 ml assay medium (phenol red‐free DMEM (low glucose, Life Technologies), 10% FCS, 5% HS, no antibiotics). The split TEV assay plasmids (2 μg pcDNA3_ERBB4‐NTEV‐tevS‐GV‐2xHA, 2 μg pTag4C_PIK3R1‐CTEV‐2xHA, 2 μg p5xUAS_firefly luciferase, 2 μg pTK_Renilla luciferase, and 0.5 μg pECFP‐C1 for examining transfection efficiency) were diluted in 2.5 ml Opti‐MEM (Life Technologies) and vortexed. In parallel, 20 μl of the transfection reagent Lipofectamine 2000 was diluted in 2.5 ml Opti‐MEM and vortexed.

T1 sequence (Q15303 26-1308): as above

| Compound | inhibitory effect in the ERBB4-PIK3R1 single-culture assay |
| --- | --- |
| CS[C@@H]1CC2=CC(=O)CC[C@]2(C)C2CC[C@@]3(C)C(CCC34CCC(=O)O4)C21 (stereo partly drawn) | None of these compounds showed an inhibitory effect |
| C[C@]12CCC(=O)C=C1C=C[C@@H]1[C@@H]2CC[C@@]2(C)[C@H]1CC[C@@]21CCC(=O)O1 [canrenone] | None of these compounds showed an inhibitory effect |
| COC(=O)[C@@H]1CC2=CC(=O)CC[C@]2(C)[C@@]23O[C@@H]2C[C@@]2(C)[C@@H](CC[C@@]24CCC(=O)O4)[C@H]13 [eplerenone] | None of these compounds showed an inhibitory effect |

Same assay, conditions: PC12 split TEV assay cells, single culture

| Compound | EC50, ERBB4-PIK3R1 dose-response assay using EGFld as stimulus [ng/mL] |
| --- | --- |
| EGFld: soluble biologically active EGF-like domain of NRG1, used as Nrg1 stimulus (Reprokine, RKQ02297) | 1 |
